Laboratory results reported in patent US20110092488A1, “Quninoline Methanol Compounds for the Treatment and Prevention of Parasitic Infections” (priority 2005, published 2011).
Converted amounts (≈) assume the structure as drawn.

Columns and labels:
P. falciparum D6 [1] = assay: Isobologram analysis azithromycin and WR074086, P. falciparum D6; format: cell-based, Plasmodium falciparum; conditions: Line C FIG. 5: starting azithromycin 12500 ng/ml, WR074086 5 ng/ml
Description: (§1) The combined effects of azithromycin (as represented by compound 196 on the horizontal axes of FIG. 4 through 6) and WR074086 (as represented by compound 14885 on vertical axes of FIGS. 4 through 6) against three strains of P. falciparum were investigated using isobologram analysis. First, the IC50s of each compound were determined as described above.
Next, IC50s were determined with different fractional starting concentrations of each compound. For example in line C of FIG. 5, the starting concentration of azithromycin was 12500 ng/ml whereas the starting concentration of WR074086 was 5 ng/ml. Each of these starting concentrations is half of that used when each compound was tested alone. […] In the data tables, lines D-H represent other combinations of starting concentrations of each compound.
For each pair of starting concentrations for each drug, fractional inhibitory concentrations were determined using the following formula: FIC=IC50 in combination/IC50 alone.
The FICs for the eight tests are plotted as indicated in FIG. 4 through FIG. 6 for each of three P. falciparum strains. Graphs of this type are called isobolograms and additivity is represented by an overall FIC SUM of 1, as represented by the straight line joining the two axes. A potentiative effect is represented by a concave curve below the straight line, since IC50s in combination are lower than expected. Antagonism is represented by a convex curve above the straight line, since IC50s in combination are higher than expected.

P. falciparum D6 [2] = assay: In vitro antimalarial activity against P. falciparum D6; format: cell-based, Plasmodium falciparum; conditions: Plasmodium falciparum, D6; FIG. 5; read-out: IC50 against P. falciparum D6, compound alone
Description: The in vitro activities of AAQMs against P. falciparum strains W2, D6, TM91C235 and TM90C2A were evaluated using the method of Desjardins et al. as modified by Milhous et al. W2 is chloroquine resistant and mefloquine sensitive, D6 is chloroquine sensitive but naturally less susceptible to mefloquine, TM91C235 is resistant to mefloquine, chloroquine and pyrimethamine as is TM90C2A, however this latter parasite is a two pfmdr1 copy strain. We routinely run mefloquine in this screen as a control to ensure assay validity.
as §1

[3] = test system: Plasmodium falciparum malaria; conditions: P. falciparum malaria, South East Asia; WR030090: field trials; cited from earlier work

| FIC (IC50 in combination/IC50 alone) (P. falciparum D6 [1]) | IC50 (P. falciparum D6 [2]) [mg/L] | Compound | Cure rate [3] |
| --- | --- | --- | --- |
| 0.249 | 7.23 (≈ 9.66 µM) | CC[C@H]1OC(=O)[C@H](C)[C@@H](O[C@H]2C[C@@](C)(OC)[C@@H](O)[C@H](C)O2)[C@H](C)[C@@H](O[C@@H]2O[C@H](C)C[C@H](N(C)C)[C@H]2O)[C@](C)(O)C[C@@H](C)CN(C)[C@H](C)[C@@H](O)[C@]1(C)O [azithromycin, reference compound] | – |
| – | – | CCN(CC)CCCC(C)Nc1ccnc2cc(Cl)ccc12 (stereo not shown) [chloroquine] | 11-20% |
| – | – | C=C[C@H]1C[N@@]2CC[C@H]1C[C@H]2[C@H](O)c1ccnc2ccc(OC)cc12 [quinine] | 26-50% |
